Measured values published in patent US4742062A, “Benzylpiperazine compound and pharmaceutical composition as hypolipidemic agent” (Kanebo, Ltd., priority 1985, dated 1988).
“Also recorded” adds a separate entry of the source.

Columns and labels:
[1] = system: mice (liver); test: Test of hepatic toxicity in mice, weight of liver (Experiment 5); format: in vivo, ddY male mice; details: for Weight of liver, mean ± S.E. / Percentage change of weight of liver: 7 days; for Percentage change of weight of liver: vs untreated group
Description: ddY male mice (weighing 21-23 g, one group: 10 mice) were fed with a mixture of the test compound with powdery feed CE-2 (manufactured by CLEA JAPAN INC.) for 7 days. When the mice fed with the feed mixed with the test compound (test compound-administering group) and the mice fed with the feed mixed with no test compound (no test compound-administering group) were compared as to the feed uptake amount and body weight, there was observed no difference between two groups. After feeding for 7 days, under light anesthesia with ether, the liver was taken out, and the weight thereof was measured.
From the data thus obtained, a mean value (X) of the weight of liver in the no test compound-administering group and a mean value (Y) of the weight of liver in the test compound-administering group were calculated, and the significant difference between them was tested (t-test). From the resulting data, the percentage change of weight of liver in the test compound-administering group was calculated by the following equation. [formula]

[2] = Test of acute toxicity (LD50) in mice (Experiment 6); format: in vivo; details: mouse, in vivo, po, orally, 7 days observation, Weil method
Description: (§1) ddY male mice (weighing 20-25 g, one group: 5 mice) were orally administered with a suspension of the test compound in 3 w/v % aqueous gum arabic solution.

[3] = system: mice; test: as above; format: in vivo; details: orally, result in words
Description: as §1

[4] = system: mice fed with normal feed (serum cholesterol); test: Blood cholesterol lowering activity in mice fed with normal feed (Experiment 2); format: in vivo, ddY male mice; details: for Serum cholesterol level, mean ± S.E. / Percentage change of serum cholesterol: 7 days; for Percentage change of serum cholesterol: vs untreated group
Description: (2) Test method: It was done by a method similar to that of H. B. Right et al. (cf. H. B. Right et al., J. Med. Chem., Vol. 7, 113-115, 1964). ddY male mice (weighing 21-23 g, one group: 10 mice) were fed with a mixture of the test compound with powdery feed CE-2 (manufactured by CLEA JAPAN INC.) for 7 days. When the mice fed with the feed mixed with the test compound (test compound-administering group) and the mice fed with the feed mixed with no test compound (no test compound-administering group) were compared as to the feed uptake amount and body weight, there was observed no difference between two groups. After feeding for 7 days, under light anesthesia with ether, the femoral artery and vein were cut and blood was collected therefrom. The blood was centrifuged at 3,000 r.p.m. for 10 minutes to collect serum. The serum cholesterol was measured in the same manner as described in Experiment 1. From the data thus obtained, a mean value (X) of the serum cholesterol level in the no test compound-administering group and a mean value (Y) of the serum cholesterol level in the test compound-administering group were calculated, and the significant difference between them was tested (t-test). From the resulting data, the percentage change of serum cholesterol in the test compound-administering group was calculated by the following equation. [formula]

[5] = system: rats fed with normal feed (serum cholesterol); test: Blood cholesterol lowering activity in rats fed with normal feed (Experiment 1); format: in vivo, Wistar male rats; details: for Serum cholesterol level, mean ± S.E. / Percentage change of serum cholesterol: once a day for 7 days; for Percentage change of serum cholesterol: vs untreated group
Protocol: It was done by a method similar to that of A. V. Ginocchio et al. (cf. A. V. Ginocchio et al., Arzneim.Forsch./Drug Res., Vol. 30, 2032-2034, 1980).
Wistar male rats (weighing 100-130 g, one group: 6 rats) were administered with a suspension of the test compound in 3 w/v % aqueous gum arabic solution once a day for 7 days. 24 hours after the final administration of the test compound, under light anesthesia with ether, the femoral artery and vein were cut and blood was collected therefrom. The blood was centrifuged at 3,000 r.p.m. for 10 minutes to collect serum. The serum cholesterol was measured by an enzymatic method using an agent for measuring total cholesterol (Determiner® TC "5", manufactured by Kyowa Medex Co., Ltd.) (cf. Charles C. Allain et al., Clin. Chem., Vol. 20, 470-475, 1974).
From the data thus obtained, a mean value (X) of the serum cholesterol level in the group to which no test compound was administered and a mean value (Y) of the serum cholesterol level in the group to which the test compound was administered were calculated, and the significant difference between them was tested (t-test). From the resulting data, the percentage change of serum cholesterol in the test compound-administering group was calculated by the following equation. [formula]

[6] = system: hypercholesterolemic mice (plasma cholesterol); test: Blood cholesterol lowering activity in hypercholesterolemic mice (Experiment 3); format: in vivo, ddY male mice; details: for Plasma cholesterol level, mean ± S.E. / Percentage change of plasma cholesterol: orally, three times; for Percentage change of plasma cholesterol: vs untreated group
Description: (2) Test method: It was done by a method similar to that described in H. Ozawa, Screening of Pharmaceutical Activities for Development of New Drugs - Recent Movement and Practice, Vol. 1, 84-86, 1984 issued by […] Shoin (Tokyo). ddY male mice (weighing 10 - 12 g, one group: 10 mice) were fed with hypercholesterol feed [prepared by mixing CE-2 Feed (manufactured by CLEA JAPAN INC.) with cholesterol 1 w/w %, cholic acid 0.5 w/w % and sucrose 10 w/w %]. After 7 days from the starting of feeding with the hypercholesterol feed, and thereafter 6 hours and further 24 hours (totally three times), a suspension of the test compound in 3 w/v % aqueous gum arabic solution was orally administered. 3 hours after the final administration of the test compound, blood was collected from orbital vessel with hematocrit capillary (manufactured by TERUMO Corporation, treated with heparin). The blood was centrifuged at 10,000 r.p.m. for 2 minutes to collect blood plasma. The plasma cholesterol was measured in the same manner as described in Experiment 1. From the data thus obtained, a mean value (X) of the plasma cholesterol level in the no test compound-administering group and a mean value (Y) of the plasma cholesterol level in the test compound-administering group were calculated, and the significant difference between them was tested (t-test). From the resulting data, the percentage change of plasma cholesterol in the test compound-administering group was calculated by the following equation. [formula]

[7] = conc. of test compd. in feeds 0.0125%
[8] = conc. of test compd. in feeds 0.025%
[9] = conc. of test compd. in feeds 0.05%
[10] = conc. of test compd. in feeds 0.1%
[11] = result in words, dihydrochloride
[12] = normal feed, result in words, dihydrochloride
[13] = dose per once 50 mg/kg, ** p < 0.01
[14] = dose per once 100 mg/kg, *** p < 0.001 (compound of this invention)

Cl.Cl.Clc1ccc(CN2CCN(CC=Cc3ccc(Cl)cc3Cl)CC2)cc1 [Compound of this invention, 1-(4-Chlorobenzyl)-4-(2,4-dichlorocinnamyl)-piperazine dihydrochloride]
Weight of liver, mean ± S.E. [1, 7]: 6.80 ± 0.22 g/100 g of body weight
Percentage change of weight of liver [1, 7]: +7.1%
Weight of liver, mean ± S.E. [1, 8]: 6.63 ± 0.22 g/100 g of body weight
Percentage change of weight of liver [1, 8]: +4.4%
Weight of liver, mean ± S.E. ([1]; conc. of test compd. in feeds 0.05%, ** p < 0.01 (reference compound)): 6.86 ± 0.30 g/100 g of body weight
Percentage change of weight of liver [1, 9]: +8.0%
Weight of liver, mean ± S.E. ([1]; conc. of test compd. in feeds 0.1%, * p < 0.05 (reference compound)): 6.43 ± 0.42 g/100 g of body weight
Percentage change of weight of liver [1, 10]: +1.3%
change in the weight of liver (hepatic toxicity) [1, 11]: did not give any significant change in the weight of liver; also recorded: did not give any effect on the weight of liver
LD50 at 168 h [2]: 996 mg/kg
acute toxicity [3]: low acute toxicity
Serum cholesterol level, mean ± S.E. ([4]; conc. of test compd. in feeds 0.0125%, * p < 0.05): 130.7 ± 6.5 mg/dL
Percentage change of serum cholesterol [4, 7]: -13.0%
Serum cholesterol level, mean ± S.E. ([4]; conc. of test compd. in feeds 0.025%, *** p < 0.001): 121.0 ± 3.7 mg/dL
Percentage change of serum cholesterol [4, 8]: -19.4%
Serum cholesterol level, mean ± S.E. ([4]; conc. of test compd. in feeds 0.05%, *** p < 0.001): 62.9 ± 6.4 mg/dL
Percentage change of serum cholesterol [4, 9]: -58.1%
Serum cholesterol level, mean ± S.E. ([4]; conc. of test compd. in feeds 0.1%, *** p < 0.001): 31.7 ± 3.7 mg/dL
Percentage change of serum cholesterol [4, 10]: -78.9%
serum cholesterol lowering activity in comparison with probucol [4, 12]: more potent serum cholesterol lowering activity in comparison with the known probucol; also recorded: higher activities than those of probucol in all experiments
Serum cholesterol level, mean ± S.E. ([5]; dose per once 12.5 mg/kg): 67.1 ± 2.1 mg/dL
Percentage change of serum cholesterol ([5]; dose per once 12.5 mg/kg): -5.4%
Serum cholesterol level, mean ± S.E. ([5]; dose per once 25 mg/kg, *** p < 0.001): 62.8 ± 0.8 mg/dL
Percentage change of serum cholesterol ([5]; dose per once 25 mg/kg): -11.4%
Serum cholesterol level, mean ± S.E. [5, 13]: 64.4 ± 1.6 mg/dL
Percentage change of serum cholesterol ([5]; dose per once 50 mg/kg): -9.2%
Serum cholesterol level, mean ± S.E. [5, 14]: 44.6 ± 2.1 mg/dL
Percentage change of serum cholesterol ([5]; dose per once 100 mg/kg): -37.1%
serum cholesterol lowering activity in comparison with probucol [5, 12]: higher activities than those of probucol in all experiments; also recorded: more potent serum cholesterol lowering activity in comparison with the known probucol
Plasma cholesterol level, mean ± S.E. ([6]; dose per once 25 mg/kg, ** p < 0.01): 313.1 ± 26.0 mg/dL
Percentage change of plasma cholesterol ([6]; dose per once 25 mg/kg): -29.8%
Plasma cholesterol level, mean ± S.E. [6, 13]: 314.5 ± 16.3 mg/dL
Percentage change of plasma cholesterol ([6]; dose per once 50 mg/kg): -29.5%
Plasma cholesterol level, mean ± S.E. [6, 14]: 256.0 ± 19.4 mg/dL
Percentage change of plasma cholesterol ([6]; dose per once 100 mg/kg): -42.6%
plasma cholesterol lowering activity in comparison with probucol [6, 11]: more potent plasma cholesterol lowering activity in comparison with the known probucol; also recorded: higher activities than those of probucol in all experiments
